For this assay, the target named is T1, human ANO6 (variant 5) (Homo sapiens, UniProt Q4KMQ2).
T1 construct: expressed in transfected cells; host or cells: Fischer rat thyroid (FRT) cells
T1 sequence (Q4KMQ2 1-931 isoform Q4KMQ2-2): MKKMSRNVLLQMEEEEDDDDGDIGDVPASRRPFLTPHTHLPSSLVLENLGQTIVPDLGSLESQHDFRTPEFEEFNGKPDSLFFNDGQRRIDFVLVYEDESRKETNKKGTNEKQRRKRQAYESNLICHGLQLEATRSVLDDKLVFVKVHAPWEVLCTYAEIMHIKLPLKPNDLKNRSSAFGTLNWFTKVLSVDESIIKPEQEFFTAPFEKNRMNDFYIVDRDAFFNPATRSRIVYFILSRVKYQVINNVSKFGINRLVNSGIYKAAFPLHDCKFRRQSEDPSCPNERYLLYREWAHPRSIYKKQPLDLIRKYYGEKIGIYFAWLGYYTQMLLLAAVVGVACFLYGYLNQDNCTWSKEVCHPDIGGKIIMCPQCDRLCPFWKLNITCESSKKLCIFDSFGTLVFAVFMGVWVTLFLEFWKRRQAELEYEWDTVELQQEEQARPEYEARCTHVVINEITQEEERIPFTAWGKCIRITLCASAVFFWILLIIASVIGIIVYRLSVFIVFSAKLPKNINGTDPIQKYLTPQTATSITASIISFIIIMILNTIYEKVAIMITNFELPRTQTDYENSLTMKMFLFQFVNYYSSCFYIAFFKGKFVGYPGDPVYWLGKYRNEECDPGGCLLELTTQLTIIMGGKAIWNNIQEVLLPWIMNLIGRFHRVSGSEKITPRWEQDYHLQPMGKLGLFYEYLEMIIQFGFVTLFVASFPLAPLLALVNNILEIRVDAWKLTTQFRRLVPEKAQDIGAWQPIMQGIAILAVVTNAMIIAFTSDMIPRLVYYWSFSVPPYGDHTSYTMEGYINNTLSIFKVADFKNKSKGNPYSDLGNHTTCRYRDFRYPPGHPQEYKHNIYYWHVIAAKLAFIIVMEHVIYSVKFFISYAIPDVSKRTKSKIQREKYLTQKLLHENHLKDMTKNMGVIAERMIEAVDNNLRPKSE
Briefly: Lact C2 assay (measuring phosphatidylserine externalization scramblase function). It counts as cell-based. Conditions: FRT, FRT cells expressing human ANO6 (variant 5), ionomycin 10 µM, Lact-C2-GFP fluorescence, average of three tests; for inhibition at 0.05 µM: compound 50 nM, read-out: % Inhibition 50 nM; for inhibition at 0.1 µM: compound 100 nM; for inhibition at 1 µM: compound 1 µM, read-out: % Inhibition 1 µM. The procedure: Ionomycin (Alomonelab, cat. # I-700), DAPI (Sigma- Aldrich, cat. # D8417), paraformaldehyde (Biosesang, cat. #P2031), Lionheart FX automated fluorescence microscope (BioTek), Gen5™ software program (BioTek), and Image J analysis software program.
After the incubation, the cells were treated with compounds dissolved in DMSO to 1% v/v in each well at each concentration (50 nM, 100 nM, and 1 µM) and reacted for 10 minutes. Thereafter, each well was treated with ionomycin to a final concentration of 10 µM, allowed to react for 10 minutes, and then washed with 200 µL PBS. After washing, each well was treated with 50 µL of Lactadherin-C2 (Lact-C2)-GFP mixed in DMEM medium to a final concentration of 500 nM to stain phosphatidylserine, and cultured at 37°C for 10 minutes. After completion of the reaction, the cells were washed with 200 µL PBS, and fixed with 4% paraformaldehyde for 5 minutes at room temperature. For morphological analysis, DAPI solution was added, and the cells were incubated for 15 minutes, followed by washing with PBS. The fluorescence intensity of Lact-C2-GFP bound to phosphatidylserine on the cell surface was measured using an automated fluorescence microscope. For quantitative analysis of the fluorescence intensity of Lact-C2-GFP, BioTek Gen5™ software and Image J analysis software programs were used.
Phosphatidylserine externalization inhibitory activity (%) by the compound was calculated through the following analysis method. Specifically, the background fluorescence value was subtracted from the measured Lact-C2-GFP fluorescence value, and the fluorescence value of the ionomycin non-treatment group and the ionomycin-treatment group in the same row where each test group was located in a 96-well microplate were calculated. In order to calculate the inhibitory activity (%) by the compound, the relative inhibitory activity was calculated by setting the compound and ionomycin non-treatment group to 100% inhibitory activity and the ionomycin alone treatment group to 0% inhibitory activity.

Each structure is given as a SMILES string.

As for `FC(F)(F)c1ccc2nc(-c3cccc(Nc4ccc(-c5ccccc5)nn4)c3)[nH]c2c1` [Example 1, 6-phenyl-N-(3-(6-(trifluoromethyl)-1H-benzo[d]imidazol-2-yl)phenyl)pyridazin-3-amine], the inhibition at 0.05 µM was in the range of 30 to 60%, the inhibition at 0.1 µM is more than 60% and the inhibition at 1 µM is more than 60%.
Take `c1ccc(-c2ccc(Nc3cccc(-c4nc5ccccc5[nH]4)c3)nn2)cc1` [Example 2, N-(3-(1H-benzo[d]imidazol-2-yl)phenyl)-6-phenylpyridazin-3-amine]: the inhibition at 0.1 µM was more than 60% and the inhibition at 1 µM was more than 60%.
`CC(C)(C)c1ccc2nc(-c3cccc(Nc4ccc(-c5ccccc5)nn4)c3)[nH]c2c1` [Example 3, N-[3-(6-tert-butyl-1H-benzo[d]imidazol-2-yl)phenyl]-6-phenylpyridazin-3-amine]: the inhibition at 0.05 µM was more than 60%, the inhibition at 0.1 µM was more than 60% and the inhibition at 1 µM is more than 60%.
As for `Fc1cc2nc(-c3cccc(Nc4ccc(-c5ccccc5)nn4)c3)[nH]c2cc1Br` [Example 4, N-[3-(6-bromo-5-fluoro-1H-benzo[d]imidazol-2-yl)phenyl]-6-phenylpyridazin-3-amine], the inhibition at 0.05 µM lay within 30 to 60%, the inhibition at 0.1 µM was more than 60% and the inhibition at 1 µM is more than 60%.
Take `FC(F)(F)Oc1ccc2nc(-c3cccc(Nc4ccc(-c5ccccc5)nn4)c3)[nH]c2c1` [Example 6, 6-phenyl-N-(3-(6-(trifluoromethoxy)-1H-benzo[d]imidazol-2-yl)phenyl)pyridazin-3-amine]: the inhibition at 0.1 µM is more than 60% and the inhibition at 1 µM is more than 60%.
As to `Clc1cc2nc(-c3cccc(Nc4ccc(-c5ccccc5)nn4)c3)[nH]c2cc1Cl` [Example 7, N-(3-(5,6-dichloro-1H-benzo[d]imidazol-2-yl)phenyl)-6-phenylpyridazin-3-amine], the inhibition at 0.05 µM was more than 60%, the inhibition at 0.1 µM is more than 60% and the inhibition at 1 µM is more than 60%.
On to `FC(F)(F)c1cc2nc(-c3cccc(Nc4ccc(-c5ccccc5)nn4)c3)[nH]c2cc1Cl` [Example 8, N-{3-[6-chloro-5-(trifluoromethyl)-1H-benzo[d]imidazol-2-yl]phenyl}-6-phenylpyridazin-3-amine], for which the inhibition at 0.05 µM is more than 60%, the inhibition at 0.1 µM is more than 60% and the inhibition at 1 µM was more than 60%.
In the case of `FC(F)(F)c1cc2nc(-c3cccc(Nc4ccc(-c5ccccc5)nn4)c3)[nH]c2cc1Br` [Example 9, N-{3-[6-bromo-5-(trifluoromethyl)-1H-benzo[d]imidazol-2-yl]phenyl}-6-phenylpyridazin-3-amine], the inhibition at 0.05 µM is more than 60%, the inhibition at 0.1 µM is more than 60% and the inhibition at 1 µM is more than 60%.
Turning to `FC(F)(F)Oc1cc2nc(-c3cccc(Nc4ccc(-c5ccccc5)nn4)c3)[nH]c2cc1Cl` [Example 10, N-{3-[6-chloro-5-(trifluoromethoxy)-1H-benzo[d]imidazol-2-yl]phenyl}-6-phenylpyridazin-3-amine], the inhibition at 0.05 µM is more than 60%, the inhibition at 0.1 µM is more than 60% and the inhibition at 1 µM is more than 60%.
As for `Fc1cc(Br)c2[nH]c(-c3cccc(Nc4ccc(-c5ccccc5)nn4)c3)nc2c1` [Example 11, N-(3-(7-bromo-5-fluoro-1H-benzo[d]imidazol-2-yl)phenyl)-6-phenylpyridazin-3-amine], the inhibition at 0.1 µM was 30 to 60% and the inhibition at 1 µM is more than 60%.
With `Clc1ccc2nc(-c3cccc(Nc4ccc(-c5ccccc5)nn4)c3)[nH]c2c1` [Example 12, N-[3-(6-chloro-1H-benzo[d]imidazol-2-yl)phenyl]-6-phenylpyridazin-3-amine], the inhibition at 0.05 µM is more than 60%, the inhibition at 0.1 µM is more than 60% and the inhibition at 1 µM was more than 60%.
Regarding `Clc1cc2nc(-c3cccc(Nc4ccc(-c5ccccc5)cn4)c3)[nH]c2cc1Cl` [Example 13, N-[3-(5,6-dichloro-1H-benzo[d]imidazol-2-yl)phenyl]-5-phenylpyridin-2-amine], the inhibition at 0.05 µM was more than 60%, the inhibition at 0.1 µM was more than 60% and the inhibition at 1 µM was more than 60%.
Regarding `FC(F)(F)c1ccc2nc(-c3cccc(Nc4ncc(-c5ccccc5)cn4)c3)[nH]c2c1` [Example 14, 5-phenyl-N-(3-(6-(trifluoromethyl)-1H-benzo[d]imidazol-2-yl)phenyl)pyrimidin-2-amine], the inhibition at 0.05 µM was more than 60%, the inhibition at 0.1 µM was more than 60% and the inhibition at 1 µM is more than 60%.
As to `FC(F)(F)c1ccc2nc(-c3cccc(Nc4ccc(-c5ccccc5)cn4)c3)[nH]c2c1` [Example 15, 5-Phenyl-N-{3-[6-(trifluoromethyl)-1H-benzo[d]imidazol-2-yl]phenyl}pyridin-2-amine], the inhibition at 0.05 µM is more than 60%, the inhibition at 0.1 µM was more than 60% and the inhibition at 1 µM is more than 60%.
Consider `Fc1cccc(-c2cnc(Nc3cccc(-c4nc5ccc(C(F)(F)F)cc5[nH]4)c3)nc2)c1` [Example 17, 5-(3-Fluorophenyl)-N-{3-[6-(trifluoromethyl)-1H-benzo[d]imidazol-2-yl]phenyl}pyrimidin-2-amine], for which the inhibition at 0.05 µM is more than 60%, the inhibition at 0.1 µM is more than 60% and the inhibition at 1 µM was more than 60%.
Turning to `Fc1cccc(-c2ccc(Nc3cccc(-c4nc5ccc(C(F)(F)F)cc5[nH]4)c3)nc2)c1` [Example 18, 5-(3-fluorophenyl)-N-(3-(6-(trifluoromethyl)-1H-benzo[d]imidazol-2-yl)phenyl)pyridin-2-amine], the inhibition at 0.05 µM is more than 60%, the inhibition at 0.1 µM was more than 60% and the inhibition at 1 µM was more than 60%.
`c1ccc(-c2ccc(Nc3cccc(-c4nc5ccccc5[nH]4)c3)cc2)cc1` [Example 19, N-[3-(1H-benzo[d]imidazol-2-yl)phenyl]-[1,1'-biphenyl]-4-amine]: the inhibition at 0.05 µM was 30 to 60%, the inhibition at 0.1 µM is more than 60% and the inhibition at 1 µM is more than 60%.
Consider `c1ccc(-c2ccc(Nc3cccc(-c4nc5ccccc5[nH]4)c3)cc2)nc1` [Example 20, 3-(1H-benzo[d]imidazol-2-yl)-N-(4-(pyridin-2-yl)phenyl)aniline], for which the inhibition at 0.05 µM was more than 60%, the inhibition at 0.1 µM was more than 60% and the inhibition at 1 µM was more than 60%.
With `c1cc(Nc2ccc(-c3cccnn3)cc2)cc(-c2nc3ccccc3[nH]2)c1` [Example 21, 3-(1H-benzo[d]imidazol-2-yl)-N-(4-(pyridazin-3-yl)phenyl)aniline], the inhibition at 0.05 µM was more than 60%, the inhibition at 0.1 µM was more than 60% and the inhibition at 1 µM is more than 60%.
As to `c1cc(Nc2ccc(-c3ccncn3)cc2)cc(-c2nc3ccccc3[nH]2)c1` [Example 22, N-[3-(1H-benzo[d]imidazol-2-yl)phenyl]-4-(pyrimidin-4-yl)aniline], the inhibition at 0.05 µM was more than 60%, the inhibition at 0.1 µM was more than 60% and the inhibition at 1 µM was more than 60%.
